System: FRT cells
Experiment: Transepithelial conductance (Gt) in Air-Liquid Interface culture of transfected FRT cells
Format: cell-based, rat
Details: FRT cells transfected with 2099.1 or 1835.1; sequential Forskolin, VX770, Inh-172
Procedure: Further studies were conducted to assess the activity of hCFTR proteins expressed by selected mRNA constructs and whether these can properly open and close to allow proper ion transport. In these studies, an Air-Liquid Interface (ALI) cell culture model of FRT cells was used to transfect an unformulated subset of codon-optimized hCFTR mRNAs at different doses ranging from 0.5 μg-2 μg of mRNA (the 2 μg dose is not shown) into the FRT cells. ALI is a method of cell culture by which polarized cells are generated with their basal surfaces in contact with media, and the top of the cellular layer is exposed to the air. This model helps to mimic the cellular structure of in vivo airways. At 24 hours post-transfection, transepithelial conductance (Gt) of the cells over time was measured as an indicator of CFTR activity. Initially, Gt was measured with the transfected or control cells unperturbed. Then, a sequential process of CFTR activation (channel opening), enhancement (gating promotion) and closing of the CFTR channels was performed. The hCFTR constructs used in this study were 1835.1 (SEQ ID NO: 53), 2093.1 (SEQ ID NO: 66), 2095.1 (SEQ ID NO: 68), 2096.1 (SEQ ID NO: 69), and 2099.1 (SEQ ID NO: 72). In addition, controls were performed using a reference sequence of construct 764.1 (SEQ ID NO: 47) and untransfected cells. […]

Row | Compound | change in Gt on introduction of the agent
1 | O=C(O)c1ccc(C=C2SC(=S)N(c3cccc(C(F)(F)F)c3)C2=O)cc1 [Inh-172, reference compound] | decline in Gt
2 | CC(C)(C)c1cc(C(C)(C)C)c(NC(=O)c2c[nH]c3ccccc3c2=O)cc1O [VX770, reference compound] | second increase in Gt

Reference: US20230159449A1, “LIPID FORMULATIONS CONTAINING NUCLEIC ACIDS AND METHODS OF TREATMENT FOR CYSTIC FIBROSIS” (Arcturus Therapeutics, Inc., priority 2021, published 2023)
